≈ marks a conversion by molar mass, not a printed value.
What was measured:
C5a receptor = molecular target: T1, C5a receptor (Homo sapiens, UniProt P21730); experiment: C5a receptor binding assay ([125I]-human C5a, human peripheral blood neutrophil); conditions: [125I]-C5a 200 pM, 4° C. for 2 hr, read-out: IC50 value, inhibition of [125I]-human C5a binding
T1 construct: neutrophil fraction was separated from human peripheral intravenous blood; endogenous in cells; host or cells: human peripheral blood neutrophils (whole cells)
T1 sequence (P21730 1-350): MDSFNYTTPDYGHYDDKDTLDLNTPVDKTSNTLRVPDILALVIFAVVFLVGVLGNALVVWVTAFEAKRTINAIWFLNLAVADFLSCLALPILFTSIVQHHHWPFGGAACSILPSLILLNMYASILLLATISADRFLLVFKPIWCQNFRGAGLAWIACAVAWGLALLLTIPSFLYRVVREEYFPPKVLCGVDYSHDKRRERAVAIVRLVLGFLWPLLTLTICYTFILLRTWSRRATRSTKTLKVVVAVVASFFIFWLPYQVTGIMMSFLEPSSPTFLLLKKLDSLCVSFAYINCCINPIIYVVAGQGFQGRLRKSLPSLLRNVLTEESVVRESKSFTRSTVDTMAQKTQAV
Procedure: The C5a receptor binding inhibitory action of C5a and the test compound was evaluated by a receptor binding assay comprising of human peripheral blood neutrophil, which expresses the C5a receptor, and [^125I]-human C5a (Amersham Pharmacia Biotech) in a MultiScreen (MILLIPORE). First, neutrophil fraction was separated from human peripheral intravenous blood using lympholyte-poly (Cedarlane), and suspended in a Binding buffer [50 mM HEPES, 1 mM CaCl2, 5 mM MgCl2, 0.5% bovine albumin (BSA, SIGMA), 0.02% NaN3 (pH 7.2)]. The binding assay was started by the addition of 1×10^5 cells/50 μL neutrophil suspension, 25 μL of a test compound solution (obtained by dissolving the test compound in N,N-dimethylformamide to a final concentration of 10 mmol/L and diluting with binding buffer), and 25 μL of [^125I]-C5a solution (final concentration 200 pM), to each well of the MultiScreen. […] After drying the MultiScreen, the radioactivity on the filter was measured using a gamma counter.
The rate of inhibition (% inhibition) of C5a binding by the test compound was calculated by the following formula using the count value obtained without addition of the test compound as Total, the count value obtained with addition of non-labeled C5a as Non, and the count value obtained with addition of the test compound as Test. […]

[1] = Dissolution test (JP Dissolution Test Method 2, paddle method); type: physicochemical; conditions: JP second fluid 900 ml, paddle 50 rpm, 37° C., about 10 mg based on free form
Procedure: The compounds obtained in Examples 22, 24 and 25, free base•Form-I crystal, and the racemate of the compound of Example 3 were subjected to a dissolution test, and the dissolution rate was compared. According to this test method, the amount of dissolution relative to the content of each compound in the test solution is expressed in the dissolution rate (%), which was measured over time.
For the method of adding each compound, the compound (about 10 mg based on free form) was precisely weighed and directly added to a vessel. As the test solution, The Japanese Pharmacopoeia second fluid (900 ml) was used, and the test was performed according to The Japanese Pharmacopoeia Dissolution Test Method 2 (Paddle Method) at 50 rpm. The test temperature was 37° C. After the start of the test, solution for dissolution (10 ml) was taken at suitable times, and a test solution (10 ml) heated to 37° C. was soon carefully added for compensation. The collected solution for dissolution was passed through a filter (DISMIC 13HP PTFE (0.45 μm); Toyo Roshi Kaisha). The filtrate in the early stage (5 ml) was removed, the subsequent filtrate (500 μl) was precisely measured, and the dilution solution (water/acetonitrile/trifluoroacetic acid mixture=500:500:1, 500 μl) was accurately added to give a sample solution.
Separately, about 10 mg of the free base•Form-I crystal was precisely weighed, and a dilution solution (water/acetonitrile/trifluoroacetic acid mixture=500:500:1) was added to 50 ml sharp. This solution (2.5 ml) was precisely measured, and a dilution solution (water/acetonitrile/trifluoroacetic acid mixture=500:500:1) was added to 50 ml sharp. This was used as the standard solution of free base•Form-I crystal (10 μg/ml). The sample solution and the standard solution were measured under the HPLC conditions shown below, the peak areas AT and AS of the free base•Form-I crystal in each solution were measured, and the dissolution rate was determined by the following formula.
The nth dissolution rate (%) of free base•Form-I crystal=Wn/W100%×100 • W1: the first dissolution amount (mg) of free base•Form-I crystal
=(900×AT1)×WS/AS/1000 • Wn: the nth (n>1) dissolution amount (mg) of free base•Form-I crystal
={900×ATn+10×(AT1+AT2 . . . +ATn−1)}×WS/AS/1000 • W100%: cast amount (mg) of drug substance • Ws: collected amount (mg) of free base•Form-I crystal standard product • As: peak area of free base•Form-I crystal in standard solution • AT1: peak area of free base•Form-I crystal in sample solution by the first sampling • ATn: peak area of free base•Form-I crystal in sample solution by the nth sampling. • For racemate, the dissolution rate was calculated based on the total value of S form and R form. […]

[2] = Solubility test (Japanese Pharmacopoeia Solution 2); type: physicochemical; conditions: pH 6.8, aqueous buffer, thermodynamic from solid; Japanese Pharmacopoeia Solution 2, 37° C., shaken 30 min; read-out: solubility after 30 min
Procedure: An adequate amount of a sample was taken, and a test solution (The Japanese Pharmacopoeia Solution 2) was added to each to a concentration of about 1 mg/ml. The sample was dispersed by ultrasonication for 2 min, shaken at 37° C. for 30 min, and the solution was filtered through DISMIC13HP ([…]). The filtrate in the early stage (3 ml) was removed, the subsequent filtrate (500 μl) was precisely measured, and the dilution solution (water/acetonitrile/trifluoroacetic acid mixture=500:500:1, 500 μl) was accurately added to give a sample solution. The sample solution and the standard solution prepared in Experimental Example 5 were subjected to the measurement under the similar HPLC conditions as in Experimental Example 5.

CCn1cc(CN(C(=O)C2CCCc3c(O)cccc32)c2ccc(C(C)C)nc2)cn1 (racemic) [racemate of the compound of Example 3, N-[(1-ethyl-1H-pyrazol-4-yl)methyl]-5-hydroxy-N-(6-isopropylpyridin-3-yl)-1,2,3,4-tetrahydronaphthalene-1-carboxamide, reference compound]
IC50 (C5a receptor): 23 nM
dissolution rate (comparison) [1]: slowest
solubility at 30 min [2]: 31 µg/mL (≈ 74.1 µM)

— patent publication US20080194640A1, “Optically Active Tetrahydronaphthalene Derivative” (priority 2005, published 2008)
